The source made the active and inactive calls.
Assays:
[1] = biological target: Peroxisome proliferator-activated receptor gamma/Nuclear receptor coactivator 3 (Homo sapiens, UniProt P37231); type: functional;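 also: agonist potency for raising coactivator recruitment to the receptor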
[2] = biological target: Peroxisome proliferator-activated receptor gamma/Nuclear receptor coactivator 1 (Homo sapiens, UniProt P37231); type: functional;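 also: agonist potency as compounds enhance coactivator SRC-1 recruitment to PPARgamma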
[3] = biological target: Peroxisome proliferator-activated receptor gamma/Nuclear receptor coactivator 2 (Homo sapiens, UniProt P37231); type: functional;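 also: agonist potency for raising coactivator recruitment to the receptor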
[4] = biological target: T1, Heat shock 70 kDa protein 1A (Homo sapiens, UniProt P0DMV8); experiment: Hsp70 inhibitors, probe displacement, primary screen, biochemical, fluorescence polarization (AID 583)
T1 sequence (P0DMV8 whole entry): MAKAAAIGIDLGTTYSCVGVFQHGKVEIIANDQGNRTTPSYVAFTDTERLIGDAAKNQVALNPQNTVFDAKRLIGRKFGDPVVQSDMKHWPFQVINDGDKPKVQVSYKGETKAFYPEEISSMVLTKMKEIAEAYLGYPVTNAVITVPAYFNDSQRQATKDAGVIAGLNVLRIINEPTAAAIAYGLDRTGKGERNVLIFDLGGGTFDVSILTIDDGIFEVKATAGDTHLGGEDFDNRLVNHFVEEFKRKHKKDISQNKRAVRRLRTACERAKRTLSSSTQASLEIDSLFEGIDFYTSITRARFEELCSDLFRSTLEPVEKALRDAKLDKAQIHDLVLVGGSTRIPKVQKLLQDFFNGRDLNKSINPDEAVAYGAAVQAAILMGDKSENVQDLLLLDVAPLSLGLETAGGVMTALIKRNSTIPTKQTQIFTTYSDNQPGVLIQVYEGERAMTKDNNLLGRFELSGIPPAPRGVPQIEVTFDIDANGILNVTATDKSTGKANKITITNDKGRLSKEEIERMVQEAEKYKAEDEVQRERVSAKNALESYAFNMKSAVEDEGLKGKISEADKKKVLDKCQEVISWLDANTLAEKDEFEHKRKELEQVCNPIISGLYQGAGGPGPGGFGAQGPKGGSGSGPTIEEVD

[5] = biological target: T1, Heat shock 70 kDa protein 1A; experiment: Hsp70 inhibitors, biochemical, TR-FRET (AID 786)
[6] = biological target: Procathepsin L (Homo sapiens, UniProt P07711)
[7] = biological target: Aspartyl aminopeptidase (Plasmodium falciparum 3D7, UniProt Q8I2J3)
Chain of Aspartyl aminopeptidase (Q8I2J3 whole entry): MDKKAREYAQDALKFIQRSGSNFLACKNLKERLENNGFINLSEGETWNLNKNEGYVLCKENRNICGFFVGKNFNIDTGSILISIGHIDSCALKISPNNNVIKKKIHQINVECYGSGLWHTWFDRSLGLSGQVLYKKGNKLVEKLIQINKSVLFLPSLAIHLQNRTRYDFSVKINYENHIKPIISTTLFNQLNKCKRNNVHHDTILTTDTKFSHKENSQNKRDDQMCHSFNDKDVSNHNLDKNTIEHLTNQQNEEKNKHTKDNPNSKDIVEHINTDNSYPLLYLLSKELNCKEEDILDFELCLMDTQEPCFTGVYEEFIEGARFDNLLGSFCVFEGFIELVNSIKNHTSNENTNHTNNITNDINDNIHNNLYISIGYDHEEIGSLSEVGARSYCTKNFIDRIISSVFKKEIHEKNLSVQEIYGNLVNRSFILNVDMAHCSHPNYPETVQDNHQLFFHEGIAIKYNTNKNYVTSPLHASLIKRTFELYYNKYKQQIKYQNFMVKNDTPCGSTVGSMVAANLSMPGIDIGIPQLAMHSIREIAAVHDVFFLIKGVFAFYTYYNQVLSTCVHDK

[8] = biological target: T2, Estrogen receptor (Homo sapiens, UniProt P03372);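 also: potency for inhibiting coactivator peptide recruitment to the receptor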
T2 sequence (P03372 whole entry): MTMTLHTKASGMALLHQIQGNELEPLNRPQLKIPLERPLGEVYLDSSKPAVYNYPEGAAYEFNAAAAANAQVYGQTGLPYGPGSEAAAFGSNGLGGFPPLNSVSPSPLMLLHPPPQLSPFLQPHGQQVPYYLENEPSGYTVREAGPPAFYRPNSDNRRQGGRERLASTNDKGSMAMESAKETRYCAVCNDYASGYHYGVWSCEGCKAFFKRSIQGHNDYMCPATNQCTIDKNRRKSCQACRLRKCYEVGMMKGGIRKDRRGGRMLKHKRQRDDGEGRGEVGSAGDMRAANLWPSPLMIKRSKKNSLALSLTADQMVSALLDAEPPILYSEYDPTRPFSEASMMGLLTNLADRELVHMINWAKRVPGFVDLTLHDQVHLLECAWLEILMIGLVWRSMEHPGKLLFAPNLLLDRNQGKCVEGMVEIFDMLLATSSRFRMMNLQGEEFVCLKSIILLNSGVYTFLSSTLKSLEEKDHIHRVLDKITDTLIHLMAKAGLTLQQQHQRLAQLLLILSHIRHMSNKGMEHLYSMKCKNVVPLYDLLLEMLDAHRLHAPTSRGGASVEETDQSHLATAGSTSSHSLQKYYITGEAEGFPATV

[9] = biological target: Estrogen receptor beta (Homo sapiens, UniProt Q92731); experiment: ERβ–SRC-3 coactivator interaction inhibitors, confirmation, orthogonal assay, biochemical, ELISA, streptavidin-HRP readout (AID 1060)
[10] = biological target: T2, Estrogen receptor; experiment: ERα–SRC-3 coactivator interaction inhibitors, confirmation, orthogonal assay, biochemical, ELISA, streptavidin-HRP readout (AID 1079)
[11] = inhibitors of HIV Env-driven cell fusion, dose response, cherry-pick (AID 652057); type: functional, cell-based
[12] = cytotoxicity in HEK-293T cells, dose response, cytotoxicity control for TCR NF-kB inhibitor project, luminescence, T-cell screen hits (AID 489026); type: functional, cell-based;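 also: cells exposed to compound about 14 hours before the viability readout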
[13] = inhibitors of clade B AD8 Env fusion, dose response, cell-based, cherry-pick (AID 652062); type: functional;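 also: luciferase signal from cell-cell fusion driven by HIV-1 clade B AD8 Env; potency is for inhibitors of fusion seen as a drop in luminescence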
[14] = off-target signal loss in HeLa-CEM21 co-culture – HeLa F-luc CTL cells, cherry-picked, counter-screen for HIV-1 Env fusion inhibitor project, dose response (AID 652040); type: functional, cell-based;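 also: potency for signal decrease marking cytotoxic or nonspecific inhibition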
[15] = ZM109 Env clade C HIV-1 fusion inhibitors, dose response, HeLa effector, CEM target cells, luciferase, cherry-pick (AID 652058); type: functional, cell-based
[16] = test system: HT-1080; experiment: cytotoxicity in HT1080 fibrosarcoma cells, cell-based, fluorescence readout (AID 620); type: functional; conditions: Homo sapiens
[17] = biological target: Luciferin 4-monooxygenase (Photinus pyralis, UniProt P08659); experiment: Counter Screen for Luciferase-based Assay Positives. [Related pubchem assays: 620, 618, 411 ]
[18] = test system: Streptococcus; experiment: Group A Streptococcus viability loss, dose response, counter-screen for streptokinase expression inhibitor project, luminescence, BacTiterGlo (AID 1915); type: functional, organism-based;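 also: potency for reduction of bacterial viability or growth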
[19] = biological target: Lytic switch protein BZLF1 (Epstein-Barr virus (strain B95-8) (HHV-4) (Human herpesvirus 4), UniProt P03206); experiment: EBV ZTA inhibitors, dose response, counter-screen for EBNA-1 inhibitor project, biochemical, fluorescence polarization, Epstein-Barr virus, 1536-well (AID 2377); parameters: species or system human gammaherpesvirus 4;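 also: fluorescence polarization of Cy5-labelled ZRE DNA probe bound by purified Zta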
Chain of Lytic switch protein BZLF1 (P03206 whole entry): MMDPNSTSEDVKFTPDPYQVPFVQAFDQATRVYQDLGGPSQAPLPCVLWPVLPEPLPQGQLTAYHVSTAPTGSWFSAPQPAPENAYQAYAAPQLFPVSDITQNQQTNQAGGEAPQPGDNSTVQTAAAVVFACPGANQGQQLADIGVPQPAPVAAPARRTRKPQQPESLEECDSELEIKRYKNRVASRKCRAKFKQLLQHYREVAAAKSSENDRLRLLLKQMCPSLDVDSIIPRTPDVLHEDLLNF

[20] = biological target: Epstein-Barr nuclear antigen 1 (Epstein-Barr virus (strain B95-8) (HHV-4) (Human herpesvirus 4), UniProt P03211); experiment: EBNA-1 inhibitors, dose response, biochemical, fluorescence polarization, 1536-well (AID 2381); parameters: species or system human gammaherpesvirus 4;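 also: fluorescence polarization of a Cy5 DNA probe bound by EBNA-1 protein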
[21] = biological target: T3, Streptokinase A (Streptococcus pyogenes serotype M1, UniProt P10520); experiment: S. pyogenes streptokinase expression inhibitors, potency, dose response, plasminogen activation absorbance, OD405 (AID 1914); type: functional, Streptococcus pyogenes M1 GAS;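 also: secreted streptokinase activity via plasminogen activation per viability signal from cell pellet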
T3 sequence (P10520 whole entry): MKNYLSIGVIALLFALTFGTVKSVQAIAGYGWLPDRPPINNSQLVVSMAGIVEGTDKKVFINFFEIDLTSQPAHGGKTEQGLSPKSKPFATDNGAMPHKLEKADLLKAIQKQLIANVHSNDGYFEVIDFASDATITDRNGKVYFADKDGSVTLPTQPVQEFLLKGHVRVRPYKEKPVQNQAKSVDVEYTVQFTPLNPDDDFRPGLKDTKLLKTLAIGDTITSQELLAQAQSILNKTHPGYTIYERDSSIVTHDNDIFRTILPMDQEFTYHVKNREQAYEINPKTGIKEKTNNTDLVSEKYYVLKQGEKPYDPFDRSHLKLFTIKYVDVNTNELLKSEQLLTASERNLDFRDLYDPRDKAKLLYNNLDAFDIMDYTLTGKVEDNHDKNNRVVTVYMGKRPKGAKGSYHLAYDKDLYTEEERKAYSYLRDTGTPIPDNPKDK

[22] = test system: Streptococcus sp. 'group A'; experiment: growth inhibition of control SK(-) GAS strain, dose response, counter-screen for streptokinase expression inhibitor project, luminescence, kanamycin, BacTiterGlo, confirmation (AID 1900); type: functional, organism-based
[23] = test system: Streptococcus; experiment: Luminescence Microorganism-Based Dose Response Follow up to Identify Compounds Cytotoxic to Streptococcus. [Related pubchem assays: 1677 (Project Summary), 1915, 1914, 1902 (Retest at Dose), 1900 (Counter Screen), 1662 (Primary HTS)]; type: functional, organism-based
[24] = biological target: Cytochrome P450 2C9 (Homo sapiens, UniProt P11712); conditions: Potency
Chain of Cytochrome P450 2C9 (P11712 whole entry): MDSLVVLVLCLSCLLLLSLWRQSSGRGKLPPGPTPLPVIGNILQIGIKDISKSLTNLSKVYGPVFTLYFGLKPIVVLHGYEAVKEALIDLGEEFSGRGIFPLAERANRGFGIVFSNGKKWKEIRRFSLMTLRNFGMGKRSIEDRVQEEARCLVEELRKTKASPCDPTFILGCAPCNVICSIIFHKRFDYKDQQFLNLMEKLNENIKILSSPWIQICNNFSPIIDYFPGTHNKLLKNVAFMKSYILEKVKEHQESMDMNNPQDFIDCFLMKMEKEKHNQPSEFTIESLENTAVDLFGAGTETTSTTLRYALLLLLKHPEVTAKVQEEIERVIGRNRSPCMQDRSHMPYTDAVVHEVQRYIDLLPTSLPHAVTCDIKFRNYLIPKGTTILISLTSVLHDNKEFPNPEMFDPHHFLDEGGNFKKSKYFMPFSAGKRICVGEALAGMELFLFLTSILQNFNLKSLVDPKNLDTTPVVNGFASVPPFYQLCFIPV

[25] = biological target: Wee1-like protein kinase (Homo sapiens, UniProt P30291); experiment: Dose Response Cell-based Assay for Inhibitors of Wee1 Degradation. [Related pubchem assays: 1410, 1321 ]; type: functional
[26] = biological target: G2/mitotic-specific cyclin-B1 (Homo sapiens, UniProt P14635); experiment: Counterscreen assay for inhibitors of Wee1 degradation: dose response cell-based assay to identify inhibitors of cyclin B degradation. [Related pubchem assays: 1410, 1321 ]; type: functional
[27] = biological target: G-protein coupled receptor 55 (Homo sapiens, UniProt Q9Y2T6); experiment: GPR55 antagonists blocking LPI-driven arrestin recruitment, primary screen, imaging, U2OS, beta-arrestin-GFP, LPI agonist (AID 2013); type: functional;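 also: antagonist potency measured as reduced agonist-driven arrestin aggregation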
Chain of G-protein coupled receptor 55 (Q9Y2T6 whole entry): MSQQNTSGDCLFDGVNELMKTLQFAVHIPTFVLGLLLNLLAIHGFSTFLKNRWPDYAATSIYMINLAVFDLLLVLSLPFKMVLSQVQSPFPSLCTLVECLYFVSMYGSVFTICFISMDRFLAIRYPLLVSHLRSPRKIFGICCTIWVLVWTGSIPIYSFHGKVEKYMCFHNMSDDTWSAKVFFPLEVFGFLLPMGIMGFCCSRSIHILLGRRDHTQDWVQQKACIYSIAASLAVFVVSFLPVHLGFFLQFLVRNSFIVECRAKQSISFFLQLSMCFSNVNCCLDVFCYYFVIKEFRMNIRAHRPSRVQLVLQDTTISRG

[28] = biological target: T4, Probable nicotinate-nucleotide adenylyltransferase (Staphylococcus aureus (strain N315), UniProt P65502); type: functional, Staphylococcus aureus subsp. aureus N315;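 as to IC50 Mean: confirmatory dose-response retesting of NadD inhibitor hits first found in an ultra-high-throughput screen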
T4 sequence (P65502 whole entry): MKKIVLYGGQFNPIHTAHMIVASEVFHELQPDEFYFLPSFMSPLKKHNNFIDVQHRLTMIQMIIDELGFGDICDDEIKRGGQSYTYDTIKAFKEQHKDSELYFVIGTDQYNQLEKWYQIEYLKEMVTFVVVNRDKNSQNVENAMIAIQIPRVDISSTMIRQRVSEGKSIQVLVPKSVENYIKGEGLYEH

[29] = biological target: T4, Probable nicotinate-nucleotide adenylyltransferase; type: functional, Staphylococcus aureus subsp. aureus N315; conditions: read-out: IC50_Mean
[30] = biological target: T5, Aminopeptidase N (Plasmodium falciparum FcB1/Columbia, UniProt O96935); experiment: P. falciparum M1AAP inhibitors, biochemical, fluorogenic H-Leu-NHMec substrate, 1536-well (AID 1445); parameters: species or system Plasmodium falciparum 3D7, 3D7
T5 sequence (O96935 whole entry): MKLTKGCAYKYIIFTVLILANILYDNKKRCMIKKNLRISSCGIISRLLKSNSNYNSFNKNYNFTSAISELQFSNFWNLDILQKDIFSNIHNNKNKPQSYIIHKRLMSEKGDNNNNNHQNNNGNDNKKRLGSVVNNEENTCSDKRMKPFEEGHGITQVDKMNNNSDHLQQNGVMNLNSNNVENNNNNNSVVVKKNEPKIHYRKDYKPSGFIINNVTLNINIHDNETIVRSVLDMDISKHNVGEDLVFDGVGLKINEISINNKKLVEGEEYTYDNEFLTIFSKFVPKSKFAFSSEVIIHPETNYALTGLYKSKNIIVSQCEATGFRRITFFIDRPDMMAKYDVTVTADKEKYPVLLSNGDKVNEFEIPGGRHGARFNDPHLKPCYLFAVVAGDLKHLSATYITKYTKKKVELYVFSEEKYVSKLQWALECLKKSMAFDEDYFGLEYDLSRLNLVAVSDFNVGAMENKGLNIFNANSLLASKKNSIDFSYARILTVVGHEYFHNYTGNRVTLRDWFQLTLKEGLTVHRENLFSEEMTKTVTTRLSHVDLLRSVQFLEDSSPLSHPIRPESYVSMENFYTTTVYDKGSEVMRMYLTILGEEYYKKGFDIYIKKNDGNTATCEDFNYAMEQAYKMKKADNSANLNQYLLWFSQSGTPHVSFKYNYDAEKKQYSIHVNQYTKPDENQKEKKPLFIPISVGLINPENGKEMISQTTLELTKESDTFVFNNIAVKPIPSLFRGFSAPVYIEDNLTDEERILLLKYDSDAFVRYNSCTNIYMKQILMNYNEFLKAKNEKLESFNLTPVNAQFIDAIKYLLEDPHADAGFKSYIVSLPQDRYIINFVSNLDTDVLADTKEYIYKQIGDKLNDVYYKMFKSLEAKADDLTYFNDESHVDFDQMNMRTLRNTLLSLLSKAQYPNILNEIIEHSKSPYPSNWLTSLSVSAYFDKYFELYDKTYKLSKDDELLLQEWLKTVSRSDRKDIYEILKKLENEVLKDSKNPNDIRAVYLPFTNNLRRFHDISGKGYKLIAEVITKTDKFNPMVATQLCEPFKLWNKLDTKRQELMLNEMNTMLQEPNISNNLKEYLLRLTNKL

[31] = biological target: Transitional endoplasmic reticulum ATPase (Homo sapiens, UniProt P55072, C522A); experiment: C522A mutant p97 ATPase inhibitors, dose response, counter-screen for p97 inhibitor project, biochemical, luminescence (AID 1544)
Chain of Transitional endoplasmic reticulum ATPase (Homo sapiens, UniProt P55072, C522A) (P55072 2-806 C522A limits assumed): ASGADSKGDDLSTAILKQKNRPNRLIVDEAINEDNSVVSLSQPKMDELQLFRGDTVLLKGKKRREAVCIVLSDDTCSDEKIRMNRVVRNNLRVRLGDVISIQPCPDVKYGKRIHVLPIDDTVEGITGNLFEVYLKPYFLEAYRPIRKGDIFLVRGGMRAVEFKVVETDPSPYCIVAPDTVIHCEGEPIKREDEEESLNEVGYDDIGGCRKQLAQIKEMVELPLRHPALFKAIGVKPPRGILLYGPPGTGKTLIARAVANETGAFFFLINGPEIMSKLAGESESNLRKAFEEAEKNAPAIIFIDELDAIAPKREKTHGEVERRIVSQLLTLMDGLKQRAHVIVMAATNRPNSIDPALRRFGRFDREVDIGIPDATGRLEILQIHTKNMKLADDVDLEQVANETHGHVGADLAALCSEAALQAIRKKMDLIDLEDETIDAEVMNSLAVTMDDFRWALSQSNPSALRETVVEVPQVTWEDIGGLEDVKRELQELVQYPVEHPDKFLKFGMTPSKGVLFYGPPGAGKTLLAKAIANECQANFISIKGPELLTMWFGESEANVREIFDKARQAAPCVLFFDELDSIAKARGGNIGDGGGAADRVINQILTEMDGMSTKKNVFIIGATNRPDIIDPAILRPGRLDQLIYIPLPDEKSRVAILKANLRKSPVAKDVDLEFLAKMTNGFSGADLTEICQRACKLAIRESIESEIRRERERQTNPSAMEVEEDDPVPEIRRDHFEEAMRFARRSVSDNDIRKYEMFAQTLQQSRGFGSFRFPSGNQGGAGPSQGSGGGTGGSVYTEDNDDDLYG

[32] = biological target: Induced myeloid leukemia cell differentiation protein Mcl-1 (Homo sapiens, UniProt Q07820); type: functional
Chain of Induced myeloid leukemia cell differentiation protein Mcl-1 (Q07820 whole entry): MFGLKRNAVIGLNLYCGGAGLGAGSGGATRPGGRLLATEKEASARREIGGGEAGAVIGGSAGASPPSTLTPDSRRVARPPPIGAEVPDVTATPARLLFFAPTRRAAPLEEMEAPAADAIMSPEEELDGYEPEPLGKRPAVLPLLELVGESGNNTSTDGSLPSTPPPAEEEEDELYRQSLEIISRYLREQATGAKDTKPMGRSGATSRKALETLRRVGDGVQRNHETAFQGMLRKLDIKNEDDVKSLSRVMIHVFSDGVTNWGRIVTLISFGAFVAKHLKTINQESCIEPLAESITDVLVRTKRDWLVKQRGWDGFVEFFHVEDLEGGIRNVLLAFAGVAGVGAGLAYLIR

[33] = biological target: Transitional endoplasmic reticulum ATPase (Homo sapiens, UniProt P55072); experiment: p97 ATPase inhibitors, dose response, biochemical (AID 1534)
Chain of Transitional endoplasmic reticulum ATPase (Homo sapiens, UniProt P55072) (P55072 whole entry): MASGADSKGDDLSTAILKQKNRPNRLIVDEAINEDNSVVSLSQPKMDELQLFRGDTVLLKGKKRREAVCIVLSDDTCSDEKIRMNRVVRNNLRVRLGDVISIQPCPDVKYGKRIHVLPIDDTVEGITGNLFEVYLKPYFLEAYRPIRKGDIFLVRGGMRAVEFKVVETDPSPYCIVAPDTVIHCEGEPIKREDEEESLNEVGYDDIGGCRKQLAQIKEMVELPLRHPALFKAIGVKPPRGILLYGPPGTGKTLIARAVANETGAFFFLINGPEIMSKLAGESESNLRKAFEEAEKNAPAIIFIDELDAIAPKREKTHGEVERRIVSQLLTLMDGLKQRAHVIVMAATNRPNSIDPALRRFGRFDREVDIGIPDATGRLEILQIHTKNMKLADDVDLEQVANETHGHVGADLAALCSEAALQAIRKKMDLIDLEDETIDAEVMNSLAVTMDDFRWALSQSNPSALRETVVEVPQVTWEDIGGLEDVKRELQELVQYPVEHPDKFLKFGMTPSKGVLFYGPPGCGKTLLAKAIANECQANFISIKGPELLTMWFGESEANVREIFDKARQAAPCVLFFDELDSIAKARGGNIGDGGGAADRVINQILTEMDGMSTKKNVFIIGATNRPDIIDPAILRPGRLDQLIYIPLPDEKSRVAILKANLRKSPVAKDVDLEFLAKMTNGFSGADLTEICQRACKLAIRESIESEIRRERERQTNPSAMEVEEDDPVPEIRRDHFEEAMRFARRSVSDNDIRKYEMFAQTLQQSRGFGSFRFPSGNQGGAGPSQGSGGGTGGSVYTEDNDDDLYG

[34] = biological target: Cytochrome P450 3A4 (Homo sapiens, UniProt P08684); conditions: Potency;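 also: confirmatory qHTS run detecting inhibitors and substrates of CYP3A4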
Chain of Cytochrome P450 3A4 (P08684 whole entry): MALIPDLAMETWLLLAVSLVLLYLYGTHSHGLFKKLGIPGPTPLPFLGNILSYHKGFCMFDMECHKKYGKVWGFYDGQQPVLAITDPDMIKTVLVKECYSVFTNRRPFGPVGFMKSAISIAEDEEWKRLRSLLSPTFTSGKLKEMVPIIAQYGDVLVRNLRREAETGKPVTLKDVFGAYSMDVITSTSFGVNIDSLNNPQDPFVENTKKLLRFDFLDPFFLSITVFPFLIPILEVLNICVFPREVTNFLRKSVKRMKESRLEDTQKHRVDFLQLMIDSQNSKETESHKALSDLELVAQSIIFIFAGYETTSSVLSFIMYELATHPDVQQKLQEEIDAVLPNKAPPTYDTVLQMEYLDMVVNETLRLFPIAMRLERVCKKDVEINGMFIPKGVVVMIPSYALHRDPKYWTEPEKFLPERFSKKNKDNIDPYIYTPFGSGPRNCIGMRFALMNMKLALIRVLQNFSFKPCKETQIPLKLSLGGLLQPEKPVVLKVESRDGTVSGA

In the case of `CCn1cc(CNCc2cn(C)nc2-c2ccc(C3CCCCC3)cc2)cn1`, the EC50 [1] is reported as > 79.4 µM (not active), the EC50 [2] is reported as > 79.4 µM (not active) and the EC50 [3] is reported as > 79.4 µM (not active).

With `CCOC(=O)N1CCN(CC(=O)Nc2cc(OCC)ccc2OCC)CC1` the IC50 [4] was > 100 µM (not active) and the IC50 [5] was > 100 µM (not active).

With `O=C(Nc1ccc(Cl)cc1Cl)Nn1cnnc1` the IC50 [6] was > 59.6 µM (not active) and the IC50 [7] was 0.791 µM (active).

For `O=C(CCCn1c(=S)[nH]c2ccccc2c1=O)N1CCN(c2cccc(Cl)c2)CC1`, the IC50 [8] was 5.73 µM (active), the IC50 [9] was > 50 µM (not active) and the IC50 [10] was 0.12 µM (not active).

In the case of `Cc1ccc(C(=O)Nc2cccc(C(=O)O)c2)cc1`, the AC50 [11] is reported as 1.38 µM (active), the IC50 [12] is reported as > 80 µM (inactive) and the AC50 [13] is reported as 4.84 µM (active). The AC50 [14] was 2.07 µM (active), the AC50 [15] was 7.9 µM (active) and the EC50 [16] was > 50 µM (not active). The EC50 [17] was 96.3 µM (active).

With `O=[N+]([O-])c1ccccc1NCCNc1ncc(C(F)(F)F)cc1Cl` the EC50 [18] was > 150 µM (not active), the IC50 [19] was 23.5 µM (not active) and the IC50 [20] was 16.8 µM (not active). The EC50 [21] was 5.57 µM (active), the EC50 [22] was > 150 µM (not active) and the EC50 [23] was > 500 µM (not active).

With `Clc1ccc([C@@H](c2ccccc2Cl)C(Cl)Cl)cc1` the AC50 [24] was 15.8 µM (inconclusive).

In the case of `O=C(/C=C/c1cccnc1)/C=C/c1cccnc1`, the EC50 [25] is reported as > 1.84 µM (active), the EC50 [26] is reported as > 49.7 µM (not active) and the IC50 [27] is reported as 3.26 µM (active).

In the case of `O=c1cc(-c2ccc(O)c(-c3c(O)cc(O)c4c(=O)cc(-c5ccc(O)cc5)oc34)c2)oc2cc(O)cc(O)c12` [AMENTOFLAVONE], the IC50 [28] is reported as 9.38 µM (active), the EC50 [18] is reported as > 150 µM (not active) and the IC50 [29] is reported as 29.4 µM (active). For the same compound, the EC50 [21] was > 150 µM (not active), the IC50 [30] was 108 µM (active) and the EC50 [22] was 1.68 µM (active). The IC50 [31] was > 50 µM (not active), the IC50 [32] was 1.63 µM (active) and the IC50 [33] was 8.98 µM (active).

With `N#C/C(=C\c1ccc(O)cc1)C(=O)O` [alpha-CYANO-4-HYDROXYCINNAMIC ACID] the AC50 [34] was 31.6 µM (inconclusive).
